In this assay the target is T1, cathepsin B (cathepsin B-like cysteine protease) (Leishmania chagasi, UniProt Q9GQN7).
T1 construct: native enzyme in amastigote lysate
As to the kind of experiment: spectrofluorometric protease assay in amastigote lysate with cathepsin B-specific substrate Abz-Gly-Ile-Val-Arg-Ala-Lys(Dnp)-OH. Format: biochemical.

Molecules are shown by their SMILES.

The term IC50 denotes the concentration that gives 50% inhibition. The low end stands for inhibition by little substance, the high end for a need for much substance.

T1 sequence (Q9GQN7 entry or part of it): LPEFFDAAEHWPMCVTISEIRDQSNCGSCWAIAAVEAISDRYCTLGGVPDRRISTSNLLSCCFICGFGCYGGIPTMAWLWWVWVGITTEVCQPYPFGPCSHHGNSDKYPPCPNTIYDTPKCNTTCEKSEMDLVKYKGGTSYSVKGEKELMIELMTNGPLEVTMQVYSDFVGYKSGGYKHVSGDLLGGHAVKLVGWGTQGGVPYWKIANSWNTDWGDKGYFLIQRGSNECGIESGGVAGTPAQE

`CCCNC(=O)[C@H]1O[C@@H]1C(=O)N[C@H](C(=O)N1CCC[C@H]1C(=O)O)[C@@H](C)CC` [CA074] yielded an IC50 of 2.41 ± 0.15 µM. In turn, `COc1ccc([Te]2(Cl)OC3(CCCCC3)/C2=C\Cl)cc1` (centres unmarked) [RF07, 4-{2-Chloro-3-[chloromethylidene]-1-oxa-2-λ^4-telluraspiro[3.5]non-2-yl}phenyl Methyl Ether] showed an IC50 of 4.47 ± 0.13 µM.

For the origin of these results see publication PMC3492430, “In Vitro and In Vivo Activity of an Organic Tellurium Compound on Leishmania (Leishmania) chagasi” (PLoS ONE, 2012).
